Reference: patent US10322143B2, “Inhibitors of ADAMTS4 or ADAMTS5 for use in preventing or treating cardiac remodeling and chronic heart failure” (Universitetet i Oslo, priority 2013, dated 2019)

Assays:
[1] = test system: ADAMTS4 mRNA; test: Myocardial ADAMTS4 mRNA expression (qRT-PCR) in aortic banding rats; format: in vivo, rat; settings: AB-rats treated with PPS, left ventricle, six weeks after AB; normalized to RPL4, relative to vehicle-treated sham; median (interquartile range)
Method: (§1) Three days after AB, rats were stratified by the gradient over the stenosis to ensure similar degree of cardiac stress. Two and two stratified rats were randomized to either 6 mg/kg of the sulfated polysaccharide sodium pentosan polysulfate (PPS) (Interfarm AS, Norway) or vehicle (0.9% NaCl) injected subcutaneously every third day. […] Six weeks after AB or sham operation, the rats were examined by echocardiography and postmortem analysis, performed by experienced investigators (IS, JMA) blinded to treatment group.
In addition, mRNA levels of proteins known to modulate ADAMTS activity or versican function were measured; tissue inhibitor of metalloprotease (TIMP)-3, hyaluronic acid (HA) synthase 1 and 2, and membrane-type (MT)4-MMP, while mRNA levels of ADAMTS1, -4, and versican were quantified in NFB and NCM.
Total RNA was isolated from the left ventricle in AB rats, neonatal rat cardiomyocytes and fibroblasts (RNeasy mini kit, Qiagen, Valencia, Calif.). […] The results were detected on an ABI PRISM 7900 Sequence Detection System (Applied Biosystems, CA).

[2] = test system: aortic banding rats; test: Aortic banding rat model: echocardiography and organ weights after PPS-treatment; format: in vivo; settings: for Aorta / FS (fractional shortening) / Heart wt / IVSd (interventricular septal thickness at diastole) / LAD (left atrial diameter) / LV wt / LVDd (left ventricular diameter at diastole) / LVDs (left ventricular diameter at systole) / Lung wt / PWd (posterior wall thickness at diastole) / RV wt / Tissue Doppler Maximal velocity / Tissue Doppler Minimal velocity / HR (heart rate): PPS 6 mg/kg s.c. every third day, mean ± SEM; for HR (heart rate): in bpm (unit assumed)
Description: The experimental procedures conformed to the European Convention for the Protection of Vertebrate Animals Used for Experimental and Other Scientific Purposes, and the protocols were approved by the Norwegian Council for Animal Research. Male Wistar rats weighing 160-170 g underwent AB essentially as described previously (Lunde et al. Physiol Genomics 2011. 44(2):162-72). Briefly, the ascending aorta was dissected free through a right hemithoracotomy, and ligated (3-0 silk) against a steel wire. The sham-operated rats (sham) were subjected to the same surgical procedure with a loose suture around the aorta. In all surgical procedures performed, a mixture of 67% N2O, 28% O2, and 4% isoflurane in an anaesthesia chamber was used for preoperative sedation. To maintain anaesthesia preoperatively, a mixture of 69% N2O, 29% O2, and 2% isoflurane was given by the endotracheal tube and the animals were ventilated on a respirator (Zoovent, Triumph Technical Services, Milton Keynes, UK). Buprenorphine was given as postoperative analgesia after AB.
In vivo heart function was evaluated using the Vevo2100 system (Visualsonics Inc, Canada) as previously described (Sjaastad et al. J Appl Physiol 2000; 89:1445-54). Thereafter, the heart was excised under deep anaesthesia, washed in saline and blotted dry to remove blood in the cardiac chambers. The heart chambers were separated by rapid dissection, before being snap-frozen in liquid nitrogen and stored at −70° C. until further analyses. For AB rats not receiving PPS- or vehicle treatment, selection into heart failure (ABHF) or hypertrophy (ABHT) groups was based on echocardiographic and postmortem analysis, as follows: Inclusion criteria for ABHF group were increased lung weight (>2.5 g), increased posterior wall diameter in diastole (PWDd) (>2.0 mm) and increased left atrial diameter (>5.0 mm), while criteria for inclusion in the ABHT group were increased PWDd (>2.0 mm), increased left ventricular weight (>0.75 g) and preserved lung weight (<2.0 g).
as §1

[3] = PPS-treated vs vehicle-treated AB-rats
[4] = aortic banding rats, six weeks after AB

pentosan polysulfate [PPS] was tested. Which “ADAMTS4 mRNA level” value [1] did it give?
The value was 1.29 (1.00-6.45).

What about the “side effects including haemorrhage” value ([2]; AB rats, 6 mg/kg s.c. every third day, observed at daily basis) of the same substance?
Its value is “no side effects”.

What about the “lung weight compared to vehicle” value ([2]; PPS-treated AB-rats) of the same substance?
Its value is “tendency towards lower”.

And the “higher fractional shortening compared to vehicle-treated AB-rats” value [2, 3]?
Its value is 23%.

What about the “left ventricular diameter in systole as part of the diameter in vehicle-treated AB-rats” value [2, 3] of the same substance?
The value was “three quarters”.

What about the Aorta [2, 4] of the same substance?
The Aorta was 2.56 ± 0.03 mm.

What about the “FS (fractional shortening)” value [2, 4] of the same substance?
The value was 59.2 ± 1.5%.

What about the Heart wt [2, 4] of the same substance?
The Heart wt was 1.87 ± 0.09 g.

And the “IVSd (interventricular septal thickness at diastole)” value [2, 4]?
Its value is 2.11 ± 0.06 mm.

What about the “LAD (left atrial diameter)” value [2, 4] of the same substance?
The value was 4.18 ± 0.14 mm.

And the LV wt [2, 4]?
The LV wt was 0.95 ± 0.07 g.

And the “LVDd (left ventricular diameter at diastole)” value [2, 4]?
Its value is 6.53 ± 0.13 mm.

What about the “LVDs (left ventricular diameter at systole)” value [2, 4] of the same substance?
Its value is 2.67 ± 0.12 mm.

And the Lung wt [2, 4]?
Its Lung wt is 1.64 ± 0.08 g.

And the “PWd (posterior wall thickness at diastole)” value [2, 4]?
The value was 2.13 ± 0.06 mm.

What about the RV wt [2, 4] of the same substance?
The RV wt was 0.18 ± 0.01 g.

What about the “Tissue Doppler Maximal velocity” value [2, 4] of the same substance?
Its value is 50.70 ± 2.94.

And the “Tissue Doppler Minimal velocity” value [2, 4]?
Its value is 59.06 ± 3.26.

What about the “HR (heart rate)” value [2, 4] of the same substance?
Its value is 420 ± 6.

What about the Aorta ([2]; sham-operated rats, six weeks) of the same substance?
The Aorta was 2.63 ± 0.04 mm.

And the “FS (fractional shortening)” value ([2]; sham-operated rats, six weeks)?
The value was 53.6 ± 5.8%.

And the Heart wt ([2]; sham-operated rats, six weeks)?
Its Heart wt is 1.19 ± 0.11 g.

What about the “IVSd (interventricular septal thickness at diastole)” value ([2]; sham-operated rats, six weeks) of the same substance?
The value was 1.56 ± 0.04 mm.

What about the “LAD (left atrial diameter)” value ([2]; sham-operated rats, six weeks) of the same substance?
The value was 3.68 ± 0.14 mm.

What about the LV wt ([2]; sham-operated rats, six weeks) of the same substance?
The LV wt was 0.70 ± 0.03 g.

What about the “LVDd (left ventricular diameter at diastole)” value ([2]; sham-operated rats, six weeks) of the same substance?
The value was 6.89 ± 0.10 mm.

What about the “LVDs (left ventricular diameter at systole)” value ([2]; sham-operated rats, six weeks) of the same substance?
The value was 3.20 ± 0.41 mm.

What about the Lung wt ([2]; sham-operated rats, six weeks) of the same substance?
Its Lung wt is 1.41 ± 0.03 g.

And the “PWd (posterior wall thickness at diastole)” value ([2]; sham-operated rats, six weeks)?
Its value is 1.68 ± 0.08 mm.

And the RV wt ([2]; sham-operated rats, six weeks)?
Its RV wt is 0.17 ± 0.01 g.

What about the “Tissue Doppler Maximal velocity” value ([2]; sham-operated rats, six weeks) of the same substance?
The value was 72.9 ± 8.6.

And the “Tissue Doppler Minimal velocity” value ([2]; sham-operated rats, six weeks)?
Its value is 82.4 ± 6.1.

And the “HR (heart rate)” value ([2]; sham-operated rats, six weeks)?
The value was 412 ± 11.
